Results published in US11173140B2, “Dosing regimens of PKC activators” (COGNITIVE RESEARCH ENTERPRISES, INC., priority 2015, dated 2021).

Tests used:
BDNF = experiment: Brain BDNF by ELISA after i.v. bryostatin dosing regimens; type: in vivo, mice; settings: for BDNF (% of Control): mouse brain, 24 h after last dose
Description: FIG. 2 illustrates the increase in brain BDNF content in mice at 24 hours post intravenous administration of bryostatin. The dose of bryostatin administered is reflected by the number above each bar, while the number within each bar indicates the number of consecutive weeks mice receive a single weekly dose of bryostatin. Control mice were injected with vehicle. BDNF content for each test group was calculated as percent of the corresponding control. BDNF was measured in mouse brain by ELISA 24 h after the last dose. (Mean±SEM, n=3 except Cage 24 n=2, 2-tailed t-test).
(§1) Mouse studies were performed using bryostatin-i in accordance with the protocol described below. The following metrics were used to evaluate dosing regimens: induction of brain postsynaptic anchoring protein PSD-95, upregulation of BDNF levels in brain, minimal downregulation of PKC-ε levels, and elevation of brain and plasma concentrations of bryostatin. Groups of 2-3 mice were formed and housed in an approved research animal facility. Water was give ad libitum. A first study involved three groups of mice with animals in each group dosed weekly for 1, 2, 3, or 6 consecutive weeks. Each group had its own control group containing the same number of mice. In this study, mice in the first, second and third groups received an intravenous (i.v.) injection of 10 μg/m^2, 15 μg/m^2, and 25 μg/m^2 dose of bryostatin respectively. For each dose, mice in that group received a single injection of bryostatin weekly for predetermined number of consecutive weeks. Following dosing, mice were sacrificed and the blood and brain of each animal was collected for further analysis.
(§2) C57B/6 male mice weighing between 19-21 grams were obtained from Charles River and housed in cages, 1 mouse/cage in a vivarium at the Blanchette Rockefeller Neurosciences institute. Animals were allowed access to water ad libitum.
(§3) In these studies, bryostatin was administered intravenously (i.v.) by injection into the tail vein of a mouse. Stock solutions of bryostatin were prepared in dimethyl sulfoxide (DMSO). Prior to administration to a mouse, the stock DMSO solution of bryostatin was diluted to a predetermined concentration by dilution with phosphate buffered saline/saline (PBS/saline).
Three different dosing regimens (injection schedules) were compared. The dosing regimens tested were weekly dosing, dosing every other week (alternating weeks), and spaced or intermittent dosing.
The brain, whole blood, and plasma of mice in each dosing group as well as control mice was collected at 1 hour, 24 hours and 7 days after the last injection of bryostatin. PBMC's were isolated from blood and the brain, blood, plasma and PBMC's were frozen immediately using dry ice. Prior to analysis PBMC's were counted by diluting the sample (10 μl aliquot), 10-fold and the PBMC's counted using a Millipore Scepter cell counter. Every group of test animals had its own control group (N=3). Mice in the control group were injected with vehicle at a frequency similar to the dosing regimen and these animals were sacrificed and tested in parallel with mice in the test group.
Each measurement was performed four times (X4). BDNF levels were measured using ELISA and the concentration of protein PSD-95 was measured by Western Blot. High performance liquid chromatography-mass spectral analysis was used to measure the concentration of bryostatin in blood and brain samples based on a standard curve. Total protein concentrations were measured Coomassie Plus (Bradford) Protein Assay kit.
In this study, mice were administered 10 μg/m^2, 15 μg/m^2, and 25 μg/m^2 dose of bryostatin as a single injection once per week for the indicated number of consecutive weeks. […]

PSD-95 = experiment: Brain PSD-95 by Western Blot after i.v. bryostatin dosing regimens; type: in vivo, mice; settings: for PSD-95 (% of Control): mouse brain, 1 h after last dose
Description: The dose of bryostatin administered is reflected by the number above each bar, while the number within each bar indicates the number of consecutive weeks mice receive a single weekly dose of bryostatin. Control mice were injected with vehicle. PSD-95 was measured in mouse brain by Western Blot 1 h after the last dose. (Mean±SEM, n=3 except Cage 23 n=2, 2-tailed t-test).
as §1
Cells were harvested in homogenizing buffer containing 10 mM Tris-Cl (pH 7.4), 1 mM PMSF (phenylmethylsulfonyl fluoride), 1 mM EGTA, 1 mM EDTA. 50 mM NaF, and 20 μM leupeptin and were lysed by sonication. The homogenate was centrifuged at 100,000×g for 15 min at 4° C. to obtain the cytosolic fraction (supernatant) and membrane (pellet). The pellet was resuspended in the homogenizing buffer by sonication. Protein concentration was measured using the Coomassie Plus (Bradford) Protein Assay kit (Pierce, USA). Following quantification, 20 μg of protein from each sample was subjected to SDS-PAGE analysis in 4-20% gradient Tris-Glycine gel (Invitrogen, USA). The separated protein was then transferred to nitrocellulose membrane. The membrane was blocked with BSA at room temperature for 15 min and was incubated with primary antibody over night at 4° C. After the incubation, it was washed three times with TBS-T (Tris Buffered saline-Tween 20) and further incubated with alkaline phosphatase conjugated secondary antibody (Jackson Immunoresearch Laboratories. USA) at 1:10,000 dilution for 45 min. The membrane was finally washed three times with TBS-T and developed using the 1-step NBT-BCIP substrate (Pierce, USA). Western Blot was imaged in the Image Quant RT-ECL (GE Life Sciences, Piscataway, N.J.) and densitometric quantification was performed using the IMAL software (Blanchette Rockefeller Neurosciences institute, Morgantown, W. Va.). For translocation assays, PKC activation was represented as the percentage of total protein in the membrane (membrane/cytosol+membrane).
as §2, §3
Three different dosing regimens (injection schedules) were compared. The dosing regimens tested were weekly dosing, dosing every other week (alternating weeks), and spaced or intermittent dosing. […]

Compound: CCC/C=C/C=C/C(=O)O[C@H]1/C(=C/C(=O)OC)C[C@H]2C[C@H]([C@@H](C)O)OC(=O)C[C@H](O)C[C@@H]3C[C@H](OC(C)=O)C(C)(C)[C@](O)(C[C@@H]4C/C(=C/C(=O)OC)C[C@H](/C=C/C(C)(C)[C@]1(O)O2)O4)O3 [Bryostatin-1]
- brain BDNF levels (BDNF; mice, 10 μg/m^2 i.v., 3 or 6 consecutive weeks): did not result in elevated levels of brain BDNF
- brain BDNF levels (BDNF; mice, 15 μg/m^2, three consecutive weeks): some increase
- brain BDNF levels (BDNF; mice, 25 μg/m^2): maximum increase
- brain BDNF (BDNF; mice, 25 μg/m^2, 3 weekly doses, 3 weeks no dosing, 3 more weekly doses): remained elevated
- BDNF (% of Control) (BDNF; cage 4: 25 μg/m^2 i.v. once weekly, 3 weeks): 192.869 % of Control
- BDNF (% of Control) (BDNF; cage 5: 25 μg/m^2 i.v., 3 on/3 off/3 on (9 weeks)): 149.023 % of Control
- BDNF (% of Control) (BDNF; cage 6: 10 μg/m^2 i.v. once weekly, 3 weeks): 107.047 % of Control
- BDNF (% of Control) (BDNF; cage 8: 10 μg/m^2 i.v. once weekly, 6 weeks): 99.137 % of Control
- BDNF (% of Control) (BDNF; cage 18: 15 μg/m^2 i.v. once weekly, 3 weeks): 110.969 % of Control
- BDNF (% of Control) (BDNF; cage 22 (regimen not listed in Tables 2/3)): 133.142 % of Control
- BDNF (% of Control) (BDNF; cage 24: 25 μg/m^2 i.v. once weekly, 2 weeks): 135.095 % of Control
- amounts of PSD-95 (PSD-95; mice, 25 μg/m^2 i.v. once per week, three weeks): higher amounts
- PSD-95 (% of Control) (PSD-95; cage 7: 10 μg/m^2 i.v. once weekly, 6 weeks): 108.176 % of Control
- PSD-95 (% of Control) (PSD-95; cage 17: 15 μg/m^2 i.v. once weekly, 3 weeks): 126.969 % of Control
- PSD-95 (% of Control) (PSD-95; cage 21: 25 μg/m^2 i.v., 1 week): 99.453 % of Control
- PSD-95 (% of Control) (PSD-95; cage 23: 25 μg/m^2 i.v. once weekly, 2 weeks): 107.570 % of Control
- PSD-95 (% of Control) (PSD-95; cage 25: 25 μg/m^2 i.v. once weekly, 3 weeks): 171.203 % of Control
